# Assay results as given in publication PMC6811361, “Effect of a bound anion on the structure and dynamics of halorhodopsin from Natronomonas pharaonis” (Structural Dynamics, 2019).
# Legend:
# Format in all cases: binding
# [1] = molecular target: T1, halorhodopsin from Natronomonas pharaonis (NpHR) (Natronomonas pharaonis, UniProt P15647, W127F); assay: absorption and time-resolved UV resonance Raman spectroscopy; settings: covalent, protonated Schiff base; retinal added to expression culture
# T1 construct: gene hop; C-terminal His tag, expressed in E. coli BL21(DE3), solubilised and purified in DDM; all-trans-retinal on Lys256
# [2] = molecular target: T2, halorhodopsin from Natronomonas pharaonis (NpHR) (Natronomonas pharaonis, UniProt P15647, W229F); assay: as above; settings: covalent, protonated Schiff base; retinal added to expression culture
# T2 construct: gene hop; C-terminal His tag, expressed in E. coli BL21(DE3), solubilised and purified in DDM; all-trans-retinal on Lys256
# [3] = molecular target: T3, halorhodopsin from Natronomonas pharaonis (NpHR) (Natronomonas pharaonis, UniProt P15647); assay: visible resonance Raman spectroscopy (C=N stretch, deuteration shift); settings: covalent, protonated Schiff base at Lys256; pH 7.0; chloride-bound, formate-bound and anion-depleted forms
# T3 construct: gene hop; C-terminal His tag, expressed in E. coli BL21(DE3), solubilised and purified in DDM; all-trans-retinal on Lys256
# T3 sequence (P15647 whole entry): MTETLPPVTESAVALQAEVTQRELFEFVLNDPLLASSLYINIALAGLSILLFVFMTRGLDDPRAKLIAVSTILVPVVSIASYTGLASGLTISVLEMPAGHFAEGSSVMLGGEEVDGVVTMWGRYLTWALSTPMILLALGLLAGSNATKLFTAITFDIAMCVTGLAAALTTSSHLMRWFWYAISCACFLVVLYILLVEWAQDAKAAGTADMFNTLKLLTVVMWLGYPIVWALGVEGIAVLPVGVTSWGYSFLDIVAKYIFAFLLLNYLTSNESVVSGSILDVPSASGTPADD
# T2 sequence (P15647 whole entry W229F): as the sequence (P15647 whole entry) above, with W229F counted along it
# T1 sequence (P15647 whole entry W127F): as the sequence (P15647 whole entry) above, with W127F counted along it
compound,measurement,setting,value
CC1=C(/C=C/C(C)=C/C=C/C(C)=C/C=O)C(C)(C)CCC1 [all-trans-retinal],absorption and time-resolved UV resonance Raman spectroscopy,[1],sufficient amounts of the W127F and W229F NpHR mutants were obtained to measure their spectra
same,absorption and time-resolved UV resonance Raman spectroscopy,[2],sufficient amounts of the W127F and W229F NpHR mutants were obtained to measure their spectra
same,"visible resonance Raman spectroscopy (C=N stretch, deuteration shift)",[3],The observed deuteration shifts indicate that the Schiff base is protonated in all three forms
